Counter-ions that a name gives are not always drawn.
What follows are molecules tested against T1, human clotting factor VIIa (Homo sapiens, UniProt P08709) (assay: Inhibitory activity against clotting factor VIIa (chromogenic substrate Spectrozyme FVIIa, TF/Factor VIIa enzyme solution)). Details: human Factor VIIa 5 nmol/L with human TF 10 nmol/L, room temperature 40 minutes, 405 nm.
T1 construct: a human clotting factor VIIa (hereinafter, “Factor VIIa”) purified sample; purchased Enzyme Research Laboratories HFVIIa
Assay type: biochemical
How it was run: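 Human Factor VIIa (5 nmol/L) with human TF (10 nmol/L) in Tris-BSA buffer pH 7.4 containing 15 mmol/L CaCl2 and cephalin, with Spectrozyme FVIIa substrate. Reaction 40 min at room temperature; 4-nitroanilide read at 405 nm. IC50 by non-linear regression over 100 μmol/L–0.1 nmol/L.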

T1 sequence (P08709 213-466 limits assumed): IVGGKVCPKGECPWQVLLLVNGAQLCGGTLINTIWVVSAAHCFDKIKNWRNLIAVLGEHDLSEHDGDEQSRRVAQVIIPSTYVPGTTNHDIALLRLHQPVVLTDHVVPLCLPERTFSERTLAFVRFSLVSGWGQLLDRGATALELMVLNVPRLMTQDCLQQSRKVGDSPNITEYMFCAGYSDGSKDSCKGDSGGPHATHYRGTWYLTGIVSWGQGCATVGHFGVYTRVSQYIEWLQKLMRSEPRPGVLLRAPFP
T1 sequence (P08709 61-212 limits assumed): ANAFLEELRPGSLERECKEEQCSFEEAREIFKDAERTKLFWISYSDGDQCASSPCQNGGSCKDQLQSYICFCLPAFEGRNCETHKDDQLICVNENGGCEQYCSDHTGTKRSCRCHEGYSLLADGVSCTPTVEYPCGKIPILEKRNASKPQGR
T1 sequence (P13726 33-295 partner): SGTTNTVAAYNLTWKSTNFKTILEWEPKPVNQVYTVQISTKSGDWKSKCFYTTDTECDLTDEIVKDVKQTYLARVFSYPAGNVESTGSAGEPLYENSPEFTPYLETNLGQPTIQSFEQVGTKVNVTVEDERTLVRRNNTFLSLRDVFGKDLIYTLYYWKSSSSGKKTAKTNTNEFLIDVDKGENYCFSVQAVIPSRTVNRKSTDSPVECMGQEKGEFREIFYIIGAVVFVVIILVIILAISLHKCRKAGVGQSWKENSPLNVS

IC50 [nM]	Compound
3	COc1cc(C(Nc2ccc(C(=N)N)cc2)c2nn(-c3ncccc3N)c(=O)[nH]2)cc2c1OCCCO2 (racemic) [Example 34, (R) and (S)-4-({[1-(3-aminopyridin-2-yl)-5-oxo-4,5-dihydro-1H-[1,2,4]triazol-3-yl]-(9-methoxy-3,4-dihydro-2H-benzo[b][1,4]dioxepin-7-yl)methyl}amino)benzamidine acetate]
4.9	COc1cc(O[C@@H]2CCOC2)cc(C(Nc2ccc(C(=N)N)cc2)c2nn(-c3ncccn3)c(=O)[nH]2)c1 (mixture of isomers) [Example 5, 4-[((R) and (S)-{3-methoxy-5-[(R)-(tetrahydrofuran-3-yl)oxy]phenyl}-(5-oxo-1-pyrimidin-2-yl-4,5-dihydro-1H-[1,2,4]triazol-3-yl)methyl)amino]benzamidine acetate]
11.6	COc1cc(C(Nc2ccc(C(=N)N)cc2)c2nn(-c3ncccn3)c(=O)[nH]2)c(F)c2c1OCOC2 (racemic) [Example 32, (R) and (S)-4-{[(5-fluoro-8-methoxy-4H-benzo[1,3]dioxin-6-yl)-(5-oxo-1-pyrimidin-2-yl-4,5-dihydro-1H-[1,2,4]triazol-3-yl)methyl]amino}benzamidine acetate]
8.9	COc1cc(C(Nc2ccc(C(=N)N)cc2)c2nn(-c3ncccc3N)c(=O)[nH]2)cc2c1OCOC2 (stereo not shown) [Example 57, 4-({[1-(3-aminopyridin-2-yl)-5-oxo-4,5-dihydro-1H-[1,2,4]triazol-3-yl]-(8-methoxy-4H-benzo[1,3]dioxin-6-yl)methyl}amino)benzamidine acetate]
15.1	COc1cc(C(Nc2ccc(C(=N)N)cc2)c2nn(-c3ncccn3)c(=O)[nH]2)cc(C(C)O)c1OC (stereo not shown) [Example 25, 4-({[3-(1-hydroxyethyl)-4,5-dimethoxyphenyl]-(5-oxo-1-pyrimidin-2-yl-4,5-dihydro-1H-[1,2,4]triazol-3-yl)methyl}amino)benzamidine acetate]
1.3	C=Cc1cc(O[C@H]2CCOC2)cc(C(Nc2ccc(C(=N)N)cc2)c2nn(-c3ncccn3)c(=O)[nH]2)c1 (mixture of isomers) [Example 45(1), 4-[((R) and (S)-(5-oxo-1-pyrimidin-2-yl-4,5-dihydro-1H-[1,2,4]triazol-3-yl)-{3-[(S)-(tetrahydrofuran-3-yl)oxy]-5-vinylphenyl}methyl)amino]benzamidine acetate]
22.8	CCOc1cc(C(Nc2ccc(C(=N)N)cc2)c2nn(-c3ncccn3)c(=O)[nH]2)ccc1OCC#N (stereo not shown) [Example 114, 4-{[(4-cyanomethoxy-3-ethoxyphenyl)-(5-oxo-1-pyrimidin-2-yl-4,5-dihydro-1H-[1,2,4]triazol-3-yl)methyl]amino}benzamidine trifluoroacetate]
13.4	COc1cc(OCC(=O)N(C)C)c(F)c(C(Nc2ccc(C(=N)N)cc2)c2nn(-c3ncccn3)c(=O)[nH]2)c1 (racemic) [Example 15, (R) and (S)-2-{3-[(4-carbamimidoylphenylamino)-(5-oxo-1-pyrimidin-2-yl-4,5-dihydro-1H-[1,2,4]triazol-3-yl)methyl]-2-fluoro-5-methoxyphenoxy}-N,N-dimethylacetamide acetate]
24.5	COc1cc(C(Nc2ccc(C(=N)N)cc2)c2nn(-c3ncsc3C(N)=O)c(=O)[nH]2)c(F)c2c1OCOC2 (racemic) [Example 164, (R) and (S)-4-{3-[(4-carbamimidoylphenylamino)-(5-fluoro-8-methoxy-4H-benzo[1,3]dioxin-6-yl)methyl]-5-oxo-4,5-dihydro-[1,2,4]triazol-1-yl}thiazole-5-carboxylic acid amide]
13.4	COc1cc(C(Nc2ccc(C(=N)N)cc2)c2nn(-c3ncccn3)c(=O)[nH]2)cc2c1OCC(=O)N2CCF (racemic) [Example 223, 4-{[[4-(2-Fluoroethyl)-8-methoxy-3-oxo-3,4-dihydro-2H-benzo[1,4]oxazin-6-yl]-(5-oxo-1-pyrimidin-2-yl-4,5-dihydro-1H-[1,2,4]triazol-3-yl)methyl]amino}benzamidine]
2.7	COc1cc(C(Nc2ccc(C(=N)N)cc2)c2nn(-c3ccsc3C(=O)O)c(=O)[nH]2)c(F)c2c1OCCC2 (racemic) [Example 222, 3-{3-[(4-Carbamimidoylphenylamino)-(5-fluoro-8-methoxychroman-6-yl)methyl]-5-oxo-4,5-dihydro-[1,2,4]triazol-1-yl}thiophene-2-carboxylic acid]
3.8	C=Cc1cc(OCCO)cc(C(Nc2ccc(C(=N)N)cc2)c2nn(-c3ncccn3)c(=O)[nH]2)c1 (racemic) [Example 46, (R) and (S)-4-({[3-(2-hydroxyethoxy)-5-vinylphenyl]-(5-oxo-1-pyrimidin-2-yl-4,5-dihydro-1H-[1,2,4]triazol-3-yl)methyl}amino)benzamidine acetate]
16.5	COc1cc(F)c(C(Nc2ccc(C(=N)N)cc2)c2nn(-c3ncsc3C(=O)O)c(=O)[nH]2)cc1OC (racemic) [Example 162, (R) and (S)-4-{3-[(4-carbamimidoylphenylamino)-(2-fluoro-4,5-dimethoxyphenyl)methyl]-5-oxo-4,5-dihydro[1,2,4]triazol-1-yl}thiazole-5-carboxylic acid]
10.5	COc1cc(OCCCO)c(F)c(C(Nc2ccc(C(=N)N)cc2)c2nn(-c3ncsc3C(=O)O)c(=O)[nH]2)c1 (racemic) [Example 163, (R) and (S)-4-(3-{(4-carbamimidoylphenylamino)-[2-fluoro-3-(3-hydroxypropoxy)-5-methoxyphenyl]methyl}-5-oxo-4,5-dihydro-[1,2,4]triazol-1-yl)thiazole-5-carboxylic acid]
5	CCc1cc(OC(C)CN(C)C)c(F)c(C(Nc2ccc(C(=N)N)cc2)c2nn(-c3ccccn3)c(=O)[nH]2)c1 (stereo not shown) [Example 141, 4-({[3-(2-dimethylamino-1-methylethoxy)-5-ethyl-2-fluorophenyl]-(5-oxo-1-pyridin-2-yl-4,5-dihydro-1H-[1,2,4]triazol-3-yl)methyl}amino)benzamidine bistrifluoroacetate]
5.1	COc1cc(OCCCO)cc(C(Nc2ccc(C(=N)N)cc2)c2nn(-c3ncccn3)c(=O)[nH]2)c1 (racemic) [Example 158, 4-({[3-(3-hydroxypropoxy)-5-methoxyphenyl]-(5-oxo-1-pyrimidin-2-yl-4,5-dihydro-1H-[1,2,4]triazol-3-yl)methyl}amino)benzamidine]
74.5	COc1cc(F)c(C(Nc2ccc(C(=N)N)cc2)c2nn(-c3[nH]ncc3C(=O)O)c(=O)[nH]2)cc1OC (racemic) [Example 194, (R) and (S)-5-{3-[(4-Carbamimidoylphenylamino)-(2-fluoro-4,5-dimethoxyphenyl)methyl]-5-oxo-4,5-dihydro-[1,2,4]triazol-1-yl}-1H-pyrazole-4-carboxylic acid acetate]
3.7	Cc1cc(OC2CCOCC2)cc(C(Nc2ccc(C(=N)N)cc2)c2nn(-c3ncccn3)c(=O)[nH]2)c1 (racemic) [Example 60, (R) and (S)-4-({[3-methyl-5-(tetrahydropyran-4-yloxy)phenyl]-(5-oxo-1-pyrimidin-2-yl-4,5-dihydro-1H-[1,2,4]triazol-3-yl)methyl}amino)benzamidine acetate]
33.8	COc1cc(CO)cc(C(Nc2ccc(C(=N)N)cc2)c2nn(-c3ncccn3)c(=O)[nH]2)c1 (racemic) [Example 12, (R) and (S)-4-{[(3-hydroxymethyl-5-methoxyphenyl)-(5-oxo-1-pyrimidin-2-yl-4,5-dihydro-1H-[1,2,4]triazol-3-yl)methyl]amino}benzamidine trifluoroacetate]
15.3	C=CCOc1cc(COC)cc(C(Nc2ccc(C(=N)N)cc2)c2nn(-c3ncccn3)c(=O)[nH]2)c1 (racemic) [Example 85, 4-{[(R) and (S)-(3-allyloxy-5-methoxymethylphenyl)-(5-oxo-1-pyrimidin-2-yl-4,5-dihydro-1H-[1,2,4]triazol-3-yl)methyl]amino}benzamidine acetate]
6.7	COc1cc(F)c(C(Nc2ccc(C(=N)N)cc2)c2nn(-c3ncccc3F)c(=O)[nH]2)cc1OC (racemic) [Example 184, (R) and (S)-4-({(2-fluoro-4,5-dimethoxyphenyl)-[1-(3-fluoropyridin-2-yl)-5-oxo-4,5-dihydro-1H-[1,2,4]triazol-3-yl]methyl}amino)benzamidine acetate]
3.3	COc1cc(F)c(C(Nc2ccc(C(=N)N)cc2)c2nn(-c3ccsc3C(=O)O)c(=O)[nH]2)cc1OC (racemic) [Example 171, (R) and (S)-3-{3-[(4-carbamimidoylphenylamino)-(2-fluoro-4,5-dimethoxyphenyl)methyl]-5-oxo-4,5-dihydro[1,2,4]triazol-1-yl}thiophene-2-carboxylic acid]
15.5	CCOc1ccc(C(Nc2ccc(C(=N)N)cc2)c2nn(-c3ncccn3)c(=O)[nH]2)cc1OC (racemic) [Example 18, (R) and (S)-4-{[(4-ethoxy-3-methoxyphenyl)-(5-oxo-1-pyrimidin-2-yl-4,5-dihydro-1H-[1,2,4]triazol-3-yl)methyl]amino}benzamidine acetate]
25.7	Cc1cc(OCC(=O)N(C)C)cc(C(Nc2ccc(C(=N)N)cc2)c2nn(-c3ncccn3)c(=O)[nH]2)c1 (racemic) [Example 44, (R) and (S)-2-{3-[(4-carbamimidoylphenylamino)-(5-oxo-1-pyrimidin-2-yl-4,5-dihydro-1H-[1,2,4]triazol-3-yl)methyl]-5-methylphenoxy}-N,N-dimethylacetamide acetate]
9.7	COc1cc(C(Nc2ccc(C(=N)N)cc2)c2nn(-c3ncccn3)c(=O)[nH]2)cc2c1OCCO2 (racemic) [Example 20, (R) and (S)-4-{[(8-methoxy-2,3-dihydro-benzo[1,4]dioxin-6-yl)-(5-oxo-1-pyrimidin-2-yl-4,5-dihydro-1H-[1,2,4]triazol-3-yl)methyl]amino}benzamidine acetate]

Reference: patent publication US7816522B2, “Triazolone derivatives” (Eisai Co., Ltd., priority 2006, dated 2010)
